Values quoted from earlier work as cited in US8377484B1, “Tumor encapsulation for prevention and treatment of metastatic cancer disease” (priority 2004, dated 2013).

Tests used:
[1] = tested on: human breast cancer cells
[2] = tested on: differentiated C2C12 myotubes
[3] = tested on: Cultured primary rat Schwann cells

O=c1c(-c2ccc(O)cc2)coc2cc(O)ccc12 [daidzein]
inhibition of cancer cells proliferation [1]: inhibit cancer cells proliferation

EHS Laminin-1: major BM structural protein, heterotrimeric laminin from mouse EHS
time for laminin-based BM to form on myotube surface ([2]; incubation with 5-10 microg/ml of laminin-1): ≤ 4 h | concentration able to induce BM assembly ([3]; cultured cells in vitro): 2 mkg/ml

O=c1c(-c2ccc(O)cc2)coc2cc(O)cc(O)c12 [genistein, 5,7,4′-trihydroxyisoflavone]
promotion of BM competency ([2]; cell cultures of differentiated myotubes): promote BM competency | promotion of BM competency ([3]; cell cultures of glial Schwann cells): promote BM competency | inhibition of cancer cells proliferation [1]: inhibit cancer cells proliferation
